In patent publication US8906904B2, “Alkoxy pyrazoles as soluble guanylate cyclase activators” (Boehringer Ingelheim International GmbH, priority 2012, dated 2014):

Experiment: human liver microsome (HLM) metabolic stability assay
Assay type: in vitro ADME
Conditions: human liver microsomes; % hepatic blood flow calculated from t1/2
Outline: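 Compounds at 1 uM incubated with human liver microsomes plus NADPH at 37° C., sampled at 0, 5, 15, 30 and 60 min into cold acetonitrile and quantified by LC/MS/MS. t½ from the slope of ln % remaining vs time; CLint, CLh and % Qh derived from it (n=1).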

Row | SMILES | HLM (% Qh)
1 | CCOc1c(C(=O)O)cnn1-c1cccc(-c2cccc(C)c2OCc2ccc3c(c2)CCN(CC2CCOC(C)(C)C2)C3)n1 (stereo not shown) [Compound 80] | <24 % Qh
2 | COc1c(C(=O)O)cnn1-c1cccc(-c2cccc(C)c2OCc2ccc3c(c2)CCN(C2CCOCC2OC)C3)n1 (stereo not shown) [Compound 81] | <24 % Qh
3 | COc1c(C(=O)O)cnn1-c1cccc(-c2cccc(C)c2OCc2ccc3c(c2)CN(CC2CC(F)(F)C2)C3)n1 [Compound 82] | <24 % Qh
4 | COc1c(C(=O)O)cnn1-c1cccc(-c2cccc(C(F)(F)F)c2OCc2ccc3c(c2)CCN(C2CCOCC2)C3)n1 [Compound 83] | <24 % Qh
5 | COc1c(C(=O)O)cnn1-c1cccc(-c2cccc(C(F)(F)F)c2OCc2ccc3c(c2C)CCN(C2CCOCC2)C3)n1 [Compound 84] | <24 % Qh
6 | COc1c(C(=O)O)cnn1-c1cccc(-c2cccc(C)c2OCc2ccc3c(c2)CN(C2COC2)C3)n1 [Compound 85] | <24 % Qh
7 | COc1c(C(=O)O)cnn1-c1cccc(-c2cccc(C)c2OCc2ccc3c(c2)CCN(C2CCOCC2C)C3)n1 (stereo not shown) [Compound 86] | <24 % Qh
8 | COc1c(C(=O)O)cnn1-c1cccc(-c2cccc(C)c2OCc2ccc3c(c2)CCN(C2CC4CCC(C2)O4)C3)n1 (stereo not shown) [Compound 87] | <24 % Qh
9 | COc1c(C(=O)O)cnn1-c1cccc(-c2cccc(C(F)(F)F)c2OCc2ccc3c(c2C)CCN(C2COC2)C3)n1 [Compound 88] | <24 % Qh
10 | COc1c(C(=O)O)cnn1-c1cccc(-c2cccc(C)c2OCc2ccc3c(c2)C(C)(C)CN(C2CCOCC2)C3)n1 [Compound 89] | 76 % Qh
11 | COc1c(C(=O)O)cnn1-c1cccc(-c2cccc(C)c2OCc2ccc3c(c2)CCN([C@H]2CC[C@H](OC)CC2)C3)n1 [Compound 90] | <24 % Qh
12 | COc1c(C(=O)O)cnn1-c1cccc(-c2cccc(C)c2OCc2ccc3c(c2)CCN([C@H]2CC[C@@H](OC)CC2)C3)n1 [Compound 91] | <24 % Qh
13 | COc1c(C(=O)O)cnn1-c1cccc(-c2cccc(C)c2OCc2ccc3c(c2)CCN(CC2COCCO2)C3)n1 (stereo not shown) [Compound 92] | <24 % Qh
14 | COc1c(C(=O)O)cnn1-c1cccc(-c2cccc(C(F)(F)F)c2OCc2ccc3c(c2)CN(C2CCOCC2)C3)n1 [Compound 93] | <24 % Qh
15 | CCOc1c(C(=O)O)cnn1-c1cccc(-c2cccc(C)c2OCc2ccc3c(c2)CCN(C2CCOCC2F)C3)n1 (stereo not shown) [Compound 94] | <24 % Qh
16 | CCOc1c(C(=O)O)cnn1-c1cccc(-c2cccc(C)c2OCc2ccc3c(c2)CCN(CC2CC(F)(F)C2)C3)n1 [Compound 96] | 30 % Qh
